Legend:
[1] = Light resistance of styryl dye thin layer under xenon lamp exposure; format: physicochemical; details: thin layer on glass, 500 W xenon lamp 25 min, transmittance at 600 nm
Description: Light-resistance Improvement of Styryl Dyes
Thereafter, in the usual manner, a prescribed amount of the resulting solution was dropped on either surface of a polished glass substrate, 5 cm×5 cm, while the glass substrate was rotated at a rotation rate of 1,000 rpm for one minute to uniformly coat the solution thereupon, and sequentially blown with hot air and cold air to dry the coated solution.
The resulting glass substrates coated with the styryl dyes were measured for transmittance (T0) at a wavelength of 600 nm, and then exposed with light for 25 min using a 500 W xenon lamp. Immediately after that, the resulting substrates were remeasured for transmittance (T) at a wavelength of 600 nm, and the transmittance of T and T0 dye substrated for the Equation 1 to calculate the residual percentage (%). In parallel, control systems, which 15 (mg) of the conventional compound represented by Chemical Formula 44 was dissolved to TFP with or without two mg of the azo organic metal complex represented by Chemical Formula 38 as a light-resistant improver, were provided and treated similarly as above. [formula]

[2] = Thermal property by DTA and TGA (decomposition point)
Description: Thermal Property of Cyanine Dye
An adequate amount of any one of the styryl dyes of the present invention in Table 1 as test specimens was placed in a vessel and subjected to conventional differential thermal analysis (hereinafter abbreviated as “DTA”) and thermogravimetric analysis (hereinafter abbreviated as “TGA”) using “MODEL TG/DTA 220”, a digital thermo analyzer commercialized by Seiko Instruments Inc., Tokyo, Japan, to determine their melting points, i.e., temperatures at which the styryl dyes as test specimens begin to absorb heat on TGA, and decomposition points, i.e., temperatures at which the styryl dyes as test specimens begin to lose their weight on DTA. In parallel, the conventional related compound represented by Chemical Formula 44 was analyzed similarly as above. […] In TGA and DTA, the environmental temperature was set to an increasing temperature mode at a rate of 10° C./min.

Residual percentage of dye (%) ([1]; no light-resistant improver added (Formula 26 is itself combined with azo organic metal complex anion)): 3.2%
Residual percentage of dye (%) ([1]; with addition of the azo organic metal complex of Chemical Formula 38): 89.5%
Decomposition point (° C.) ([2]; DTA/TGA, MODEL TG/DTA 220, temperature increasing at 10° C./min): 236.1 °C
Compound: CN(C)c1ccc(C=CC2=[N+](C)c3ccc(Cl)cc3C2(C)C)cc1.Cc1ccc(S(=O)(=O)[O-])cc1 [Chemical Formula 44]
Decomposition behaviour around the decomposition point ([2]; TGA/DTA, 10° C./min): very slowly decomposed at around the decomposition point
